# Source: US20250236608A1, “EGFR INHIBITORS” (Blueprint Medicines Corporation, priority 2022, published 2025)
# Columns and labels:
# EGFR mutant NSCLC = details: cited from earlier work; for objective response rate (ORR): EGFR M+ NSCLC patients treated first line (1 L)
# EGFR L858R = EGFR L858R (Homo sapiens (Human), UniProt P00533, L858R); assay: Biochemical EGFR inhibition assay, EGFR L858R; details: Caliper mobility shift; 1.0 mM ATP or ATP Km; read-out: Enz EGFR_L858R IC50
# EGFR (d746-750) = EGFR (d746-750) (Homo sapiens (Human), UniProt P00533, DEL746-750); assay: Biochemical EGFR inhibition assay, EGFR (d746-750); details: Caliper mobility shift; 1.0 mM ATP or ATP Km; read-out: Enz EGFR_Exon19-del746-750 IC50
# EGFR (d746-750), sequence (P00533 other isoform, or with tags, fused parts or gaps del 1-694/del 746-750 limits assumed): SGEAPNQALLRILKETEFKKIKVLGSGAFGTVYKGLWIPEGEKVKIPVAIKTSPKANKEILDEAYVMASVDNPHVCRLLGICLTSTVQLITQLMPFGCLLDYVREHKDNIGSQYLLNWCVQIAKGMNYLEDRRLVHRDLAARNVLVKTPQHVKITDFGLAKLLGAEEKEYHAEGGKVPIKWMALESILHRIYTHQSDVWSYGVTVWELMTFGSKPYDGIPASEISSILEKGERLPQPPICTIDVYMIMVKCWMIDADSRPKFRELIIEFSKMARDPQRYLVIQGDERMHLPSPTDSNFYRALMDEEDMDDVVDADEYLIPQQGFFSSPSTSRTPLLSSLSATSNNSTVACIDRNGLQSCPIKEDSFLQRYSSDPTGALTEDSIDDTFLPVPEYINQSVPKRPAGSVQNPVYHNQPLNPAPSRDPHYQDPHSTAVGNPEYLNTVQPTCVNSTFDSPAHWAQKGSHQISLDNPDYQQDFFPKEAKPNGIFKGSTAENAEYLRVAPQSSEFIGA
# [1] = target: pEGFR (Tyr1068) in PC-9 cells (Ex19Del) (Homo sapiens (Human), UniProt P00533, DEL746-750); assay: PC-9 pEGFR AlphaLISA assay; format: cell-based; details: 4 hours incubation, p-EGFR (Tyr1068) AlphaLISA, read-out: Ext pEGFR_PC-9 Ex19Del IC50
# pEGFR (Tyr1068) in PC-9 cells (Ex19Del), sequence (P00533 other isoform, or with tags, fused parts or gaps del 746-750): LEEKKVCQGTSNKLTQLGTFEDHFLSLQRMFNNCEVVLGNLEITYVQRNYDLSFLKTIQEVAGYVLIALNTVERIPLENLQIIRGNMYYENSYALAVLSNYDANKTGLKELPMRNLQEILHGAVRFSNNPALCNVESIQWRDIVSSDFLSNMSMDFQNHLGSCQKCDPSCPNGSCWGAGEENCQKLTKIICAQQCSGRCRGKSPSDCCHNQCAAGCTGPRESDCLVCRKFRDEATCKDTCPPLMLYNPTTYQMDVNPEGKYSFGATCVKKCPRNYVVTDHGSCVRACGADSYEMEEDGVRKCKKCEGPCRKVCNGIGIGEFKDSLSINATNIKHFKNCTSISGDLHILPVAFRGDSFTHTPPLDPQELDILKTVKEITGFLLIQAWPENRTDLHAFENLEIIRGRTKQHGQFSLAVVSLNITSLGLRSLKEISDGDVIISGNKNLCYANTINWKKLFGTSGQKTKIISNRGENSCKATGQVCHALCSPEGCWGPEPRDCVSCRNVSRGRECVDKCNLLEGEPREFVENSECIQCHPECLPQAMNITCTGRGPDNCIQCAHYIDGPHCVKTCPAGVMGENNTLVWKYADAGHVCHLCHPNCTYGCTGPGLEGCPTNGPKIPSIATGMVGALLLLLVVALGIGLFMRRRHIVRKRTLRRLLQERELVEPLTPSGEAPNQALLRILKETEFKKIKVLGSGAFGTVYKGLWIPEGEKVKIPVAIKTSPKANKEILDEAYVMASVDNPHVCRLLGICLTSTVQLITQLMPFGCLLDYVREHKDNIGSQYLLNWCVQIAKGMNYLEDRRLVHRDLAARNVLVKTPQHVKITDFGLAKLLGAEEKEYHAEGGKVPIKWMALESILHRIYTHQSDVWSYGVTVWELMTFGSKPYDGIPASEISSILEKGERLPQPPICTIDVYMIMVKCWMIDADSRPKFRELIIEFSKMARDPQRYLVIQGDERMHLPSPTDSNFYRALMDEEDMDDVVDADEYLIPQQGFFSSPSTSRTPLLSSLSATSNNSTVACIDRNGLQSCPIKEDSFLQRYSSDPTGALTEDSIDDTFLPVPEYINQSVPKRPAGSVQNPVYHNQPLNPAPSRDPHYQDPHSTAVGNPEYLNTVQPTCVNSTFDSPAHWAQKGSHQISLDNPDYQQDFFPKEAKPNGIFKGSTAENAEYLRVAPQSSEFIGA
# Procedure, shortened: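 Phospho-EGFR (Tyr1068) was quantified by AlphaLISA SureFire Ultra in lysates of PC-9 cells exposed for 4 h to compound (4-fold, 10-point dilutions).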
# EGFR L858R, sequence (P00533 25-1210 L858R): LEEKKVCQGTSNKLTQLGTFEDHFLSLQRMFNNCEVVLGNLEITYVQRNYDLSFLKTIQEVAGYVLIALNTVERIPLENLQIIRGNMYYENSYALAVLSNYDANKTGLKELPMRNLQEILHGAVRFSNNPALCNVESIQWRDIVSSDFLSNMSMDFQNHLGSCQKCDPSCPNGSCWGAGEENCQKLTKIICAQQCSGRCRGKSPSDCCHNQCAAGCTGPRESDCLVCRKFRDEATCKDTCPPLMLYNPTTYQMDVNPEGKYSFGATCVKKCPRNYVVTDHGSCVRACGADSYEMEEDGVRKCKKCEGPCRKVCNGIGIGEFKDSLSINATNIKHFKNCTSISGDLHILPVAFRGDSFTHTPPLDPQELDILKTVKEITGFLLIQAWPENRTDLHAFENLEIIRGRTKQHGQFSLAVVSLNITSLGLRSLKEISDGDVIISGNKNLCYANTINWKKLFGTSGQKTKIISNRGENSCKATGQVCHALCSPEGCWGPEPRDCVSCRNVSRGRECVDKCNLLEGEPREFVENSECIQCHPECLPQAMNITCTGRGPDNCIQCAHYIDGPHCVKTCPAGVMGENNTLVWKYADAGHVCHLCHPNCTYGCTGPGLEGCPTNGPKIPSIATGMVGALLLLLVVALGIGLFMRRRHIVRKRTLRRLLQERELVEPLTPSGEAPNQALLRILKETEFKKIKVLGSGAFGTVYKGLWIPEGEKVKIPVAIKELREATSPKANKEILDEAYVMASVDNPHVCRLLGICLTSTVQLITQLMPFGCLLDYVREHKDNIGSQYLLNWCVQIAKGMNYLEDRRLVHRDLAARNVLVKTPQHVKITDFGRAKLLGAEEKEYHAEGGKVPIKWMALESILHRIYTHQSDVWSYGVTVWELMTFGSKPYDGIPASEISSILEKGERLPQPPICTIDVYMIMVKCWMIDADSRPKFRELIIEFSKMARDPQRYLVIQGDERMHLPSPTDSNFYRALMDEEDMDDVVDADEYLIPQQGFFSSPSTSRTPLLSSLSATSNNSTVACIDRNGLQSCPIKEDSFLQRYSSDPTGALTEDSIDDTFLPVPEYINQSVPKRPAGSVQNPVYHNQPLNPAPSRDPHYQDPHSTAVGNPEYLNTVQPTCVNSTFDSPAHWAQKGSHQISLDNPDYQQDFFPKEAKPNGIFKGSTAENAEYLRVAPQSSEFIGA
SMILES,objective response rate (ORR) (EGFR mutant NSCLC),"progression-free survival (PFS) (EGFR mutant NSCLC; first line, NSCLC harboring del 19 and L858R mutations) [mo]",IC50 (EGFR L858R) [nM],IC50 (EGFR (d746-750)) [nM],IC50 [1] [nM]
C#Cc1cccc(Nc2ncnc3cc(OCCOC)c(OCCOC)cc23)c1 [erlotinib],60-85%,,,,
C=CC(=O)Nc1cc(Nc2nccc(-c3cn(C)c4ccccc34)n2)c(OC)cc1N(C)CCN(C)C [osimertinib],60-85%,18.9,,,
"COc1cc2ncnc(-c3cn(C)nc3-c3ccccc3)c2cc1NC(=O)[C@H](C)N(C)C (single isomer, unassigned) [Example 237, (R)-2-(dimethylamino)-N-(7-methoxy-4-(1-methyl-3-phenyl-1H-pyrazol-4-yl)quinazolin-6-yl) propenamide or (S)-2-(dimethylamino)-N-(7-methoxy-4-(1-methyl-3-phenyl-1H-pyrazol-4-yl)quinazolin-6-yl) propenamide]",,,5.4,2,6.6
"COc1cc2ncnc(-c3cn(C)nc3-c3ccccc3)c2cc1NC(=O)c1cnn(C)c1 [Example 294, N-(7-methoxy-4-(1-methyl-3-phenyl-1H-pyrazol-4-yl)quinazolin-6-yl)-1-methyl-1H-pyrazole-4-carboxamide]",,,1,0.5,1.1
"COc1cc2ncnc(-c3cn(C)nc3-c3ccccc3)c2cc1OC(=O)N1CCN2CCCC2C1 (stereo in doubt) [Example 84, 7-methoxy-4-(1-methyl-3-phenyl-1H-pyrazol-4-yl)quinazolin-6-yl (S)-hexahydropyrrolo[1,2-a]pyrazine-2(1H)-carboxylate]",,,4.9,3.3,6.5
"CCn1cc(-c2ncnc3cc(OC)c(NC(=O)[C@]45COC[C@H]4C5)cc23)c(-c2ccc(F)cc2)n1 [Example 335, (1S,5S)—N-(4-(1-ethyl-3-(4-fluorophenyl)-1H-pyrazol-4-yl)-7-methoxyquinazolin-6-yl)-3-oxabicyclo[3.1.0]hexane-1-carboxamide]",,,2.9,1.6,3
"COc1cc2ncnc(-c3cn(C)nc3-c3ccccc3)c2nc1NC(=O)[C@@]1(C(F)(F)F)CCCN1C (single isomer, unassigned) [Example 429, (R)—N-(7-methoxy-4-(1-methyl-3-phenyl-1H-pyrazol-4-yl)pyrido[3,2-d]pyrimidin-6-yl)-1-methyl-2-(trifluoromethyl) pyrrolidine-2-carboxamide or (S)—N-(7-methoxy-4-(1-methyl-3-phenyl-1H-pyrazol-4-yl)pyrido[3,2-d]pyrimidin-6-yl)-1-methyl-2-(trifluoromethyl) pyrrolidine-2-carboxamide]",,,5.9,2.7,11.4
"COc1cc2ncnc(-c3cn(CC(F)F)nc3-c3ccccc3)c2cc1NC(=O)c1ccns1 [Example 272, N-(4-(1-(2,2-difluoroethyl)-3-phenyl-1H-pyrazol-4-yl)-7-methoxyquinazolin-6-yl)isothiazole-5-carboxamide]",,,1.2,1,0.5
"CCn1cc(-c2ncnc3cc(OC)c([C@@H](C)O)cc23)c(-c2ccccc2)n1 (single isomer, unassigned) [Example 106, (R)-1-(4-(1-ethyl-3-phenyl-1H-pyrazol-4-yl)-7-methoxyquinazolin-6-yl)ethan-1-ol or (S)-1-(4-(1-ethyl-3-phenyl-1H-pyrazol-4-yl)-7-methoxyquinazolin-6-yl)ethan-1-ol]",,,3.4,1.8,10.9
"CCOc1cc2ncnc(-c3cn(C)nc3-c3ccccc3)c2cc1N1CCN(C)CC1 [Example 162, 7-ethoxy-4-(1-methyl-3-phenyl-1H-pyrazol-4-yl)-6-(4-methylpiperazin-1-yl)quinazoline]",,,7,2.6,6
